According to patent publication US10881110B2, “Herbicidal compositions comprising isoxazolo[5,4-b]pyridines” (BASF SE, priority 2014, dated 2021):
Where “and” joins values, the source holds several entries; their conditions need not be identical. Equal entries are not always repeated. Where two headings read alike, the source gives them in different places.

Assays:
Assay in all cases: greenhouse post-emergence herbicidal test
POLAV = format: in vivo, Polygonum aviculare; design: key: rating on a scale from 0 to 100; settings: a.i. g/ha: I.1 31.25, bentazon Na 125, 20 days after treatment
Summary of the method: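 Post-emergence greenhouse test: plants in loamy sand, sprayed at 1–15 cm height with aqueous spray liquor from 10% emulsion concentrates, kept at 10-25 °C or 20-35 °C by species. Damage scored 0–100 (100 = complete destruction), usually 20 days after treatment. Expected additive effect E from Colby: E=X+Y−(X·Y/100).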

ERICA = format: in vivo, Conyza canadensis; design: key to herbicidal activity against ERICA found: rating on a scale from 0 to 100; settings: post emergence
Summary of the method: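 Test plants, sown directly or transplanted a few days earlier, are treated at 1–15 cm height with emulsified or suspended actives in water. Temperatures run 10-25° C or 20-35° C by species; injury is scored 0–100 twenty days after spraying.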

LOLMU = format: in vivo, Lolium multiflorum
Protocol: (§1) The culture containers used were plastic pots containing medium loamy sand with approximately 4.6% of humus and 69.9% sand as substrate. The seeds of the test plants were sown separately for each species.
(§2) For the post-emergence treatment, the test plants were grown to a plant height of from 1 to 15 cm, depending on the plant habit, and only then treated with the active compounds which had been suspended or emulsified in water. To this end, the test plants were either sown directly, and grown in the same containers, or they were first grown separately as seedlings and transplanted into the test containers a few days prior to treatment.
(§3) Depending on the species, the plants were kept at 10-25° C. and 20-35° C., respectively.
(§4) The test period extended over 1 to 3 weeks. During this time, the plants were tended and their response to the individual treatments was evaluated 20 days after treatment except mentioned otherwise.
(§5) Evaluation was carried out using a scale from 0 to 100. 100 means no emergence of the plants, or complete destruction of at least the above-ground parts, and 0 means no damage or normal course of growth.
(§6) The respective stated components A and B, and, if appropriate, C, were formulated as a 10% by weight strength emulsion concentrate and, with addition of the amount of solvent system, introduced into the spray liquor used for applying the active compound. In the examples, the solvent used was water.
(§7) In the examples below, using the method of S. R. Colby (1967) “Calculating synergistic and antagonistic responses of herbicide combinations”, Weeds 15, p. 22 ff., the value E, which is expected if the activity of the individual active compounds is only additive, was calculated. E=X+Y−(X·Y/100)

PANMI = format: in vivo, Panicum miliaceum; settings: application rate a.i.: I.1 125 g/ha, alone or as mixture (composition 1.113)
Protocol: as §1, §2, §3, §4, §5, §6, §7

PHACA = format: in vivo
Protocol: as §1, §2, §3, §4, §5, §6, §7

[1] = a.i. g/ha: I.1 31.25, B.67 125, 20 days after treatment
[2] = a.i. g/ha: I.1 62.5, B.67 125, 20 days after treatment

O=C(O)c1cc(C2CC2)nc2onc(C3CC3)c12 [I.1]
herbicidal activity against POLAV found (POLAV): 80% | pest or weed control at 31.25 g/ha (ERICA; Erigeron canadensis, post-emergence, 480 h, I.1 alone 31.25 g/ha a.i., read-out: herbicidal activity against ERICA found): 70% | pest or weed control at 62.5 g/ha (ERICA; Erigeron canadensis, post-emergence, 480 h, I.1 alone 62.5 g/ha a.i., read-out: herbicidal activity against ERICA found): 75% | pest or weed control at 125 g/ha (ERICA; Erigeron canadensis, post-emergence, 480 h, I.1 alone 125 g/ha a.i., read-out: herbicidal activity against ERICA found): 75% | pest or weed control at 31.25 g/ha (ERICA; Erigeron canadensis, post-emergence, 480 h, I.1 31.25 g/ha a.i., read-out: herbicidal activity against ERICA found): 50% | pest or weed control at 62.5 g/ha (ERICA; Erigeron canadensis, post-emergence, 480 h, I.1 62.5 g/ha a.i., read-out: herbicidal activity against ERICA found): 70% | pest or weed control at 125 g/ha (ERICA; Erigeron canadensis, post-emergence, 480 h, I.1 125 g/ha a.i., read-out: herbicidal activity against ERICA found): 65% | pest or weed control at 15.62 g/ha (ERICA; Erigeron canadensis, post-emergence, 480 h, single active, 15.62 g/ha a.i., read-out: herbicidal activity against ERICA found): 0% | herbicidal activity against ERICA found (ERICA; 6 days after treatment, g/ha a.i.: I.1 125, naptalam 50, mixture 125+50): 70 | herbicidal activity against ERICA found (ERICA; I.1 15.62 g/ha, B.95 1 g/ha a.i.): 0 | herbicidal activity against ERICA found (ERICA; I.1 15.62 g/ha, B.95 2 g/ha a.i.): 0 | herbicidal activity against ERICA found (ERICA; I.1 31.25 g/ha, B.103 15 g/ha a.i.): 0 | herbicidal activity against ERICA found (ERICA; I.1 31.25 g/ha, B.95 1 g/ha a.i.): 0 | herbicidal activity against ERICA found (ERICA; I.1 31.25 g/ha, B.95 2 g/ha a.i.): 0 | herbicidal activity against ERICA found (ERICA; I.1 62.5 g/ha, B.103 7.5 g/ha a.i.): 0 | herbicidal activity against ERICA found (ERICA; I.1 62.5 g/ha, B.103 15 g/ha a.i.): 0 | herbicidal activity against ERICA found (ERICA; I.1 62.5 g/ha, B.57 2 g/ha a.i.): 10 | herbicidal activity against ERICA found (ERICA; I.1 62.5 g/ha, B.89 25 g/ha a.i.): 10 | herbicidal activity against ERICA found (ERICA; I.1 62.5 g/ha, B.95 1 g/ha a.i.): 10 | herbicidal activity against ERICA found (ERICA; I.1 62.5 g/ha, B.95 2 g/ha a.i.): 10 | herbicidal activity against ERICA found (ERICA; a.i. g/ha: I.1 31.25, B.92 0.5, 20 days after treatment): 25% | herbicidal activity against ERICA found (ERICA; a.i. g/ha: I.1 62.5, B.191 225, 20 days after treatment): 90% | herbicidal activity against ERICA found (ERICA; a.i. g/ha: I.1 62.5, B.69 25, 20 days after treatment): 90% | herbicidal activity against ERICA found (ERICA; a.i. g/ha: I.1 62.5, B.80 250, 20 days after treatment): 65% | herbicidal activity against ERICA found (ERICA; application rate a.i.: I.1 20.8 g/ha, B.107 (topramezone) 6 g/ha, alone or as mixture (composition 1.107)): 65 | herbicidal activity against ERICA found (ERICA; application rate a.i.: I.1 31.25 g/ha, B.100 (isoxaflutole) 12.5 g/ha, alone or as mixture (composition 1.100)): 25 | herbicidal activity against ERICA found (ERICA; application rate a.i.: I.1 31.25 g/ha, B.84 (paraquat-dichloride) 17.5 g/ha, alone or as mixture (composition 1.84)): 55 | herbicidal activity against ERICA found (ERICA; application rate a.i.: I.1 62.5 g/ha, B.100 (isoxaflutole) 12.5 g/ha, alone or as mixture (composition 1.100)): 75 | herbicidal activity against ERICA found (ERICA; application rate a.i.: I.1 62.5 g/ha, B.107 (topramezone) 6 g/ha, alone or as mixture (composition 1.107)): 65 | herbicidal activity against ERICA found (ERICA; applied alone at 62.5 g/ha a.i.): 75 | herbicidal activity against ERICA found (ERICA; applied alone at 125 g/ha a.i.): 75 and 65 | herbicidal activity against ERICA found (ERICA; g/ha a.i.: I.1 31.25, B.52 2.5, mixture 31.25+2.5): 0 | herbicidal activity against ERICA found (ERICA; g/ha a.i.: I.1 31.25, B.52 5, mixture 31.25+5): 0 | herbicidal activity against ERICA found (ERICA; g/ha a.i.: I.1 62.5, B.52 2.5, mixture 62.5+2.5): 35 | herbicidal activity against ERICA found (ERICA; g/ha a.i.: I.1 62.5, B.52 5, mixture 62.5+5): 35 | herbicidal activity against LOLMU found (LOLMU; a.i. g/ha: I.1 7.8, B.67 125, 20 days after treatment): 0% | herbicidal activity against LOLMU found (LOLMU; a.i. g/ha: I.1 15.6, B.67 125, 20 days after treatment): 0% | herbicidal activity against LOLMU found (LOLMU; [1]): 0% | herbicidal activity against LOLMU found (LOLMU; a.i. g/ha: I.1 62.5, B.67 62.5, 20 days after treatment): 40% | herbicidal activity against LOLMU found (LOLMU; [2]): 20% | herbicidal activity against LOLMU found (LOLMU; a.i. g/ha: I.1 62.5, B.77 75, 20 days after treatment): 20% | herbicidal activity against PANMI, found (PANMI; B.113 (glyphosate) 33.75 g/ha): 60 | herbicidal activity against PANMI, found (PANMI; B.113 (glyphosate) 135 g/ha): 60 | herbicidal activity against PHACA found (PHACA; [1]): 0% | herbicidal activity against PHACA found (PHACA; [2]): 35%
